The values below come from patent publication US20050004227A1, “Cell growth inhibitor” (priority 2001, published 2005).

Like-named read-outs stand apart in the source and are kept apart here.

Format in all cases: cell-based
The target in one data set is T1, PepT1 (Homo sapiens, UniProt P46059).
T1 construct: In Caco-2 cells, only PepT1 was expressed; endogenous in cells; host or cells: Caco-2 (human colon cancer cell line)
T1 sequence (P46059 1-708): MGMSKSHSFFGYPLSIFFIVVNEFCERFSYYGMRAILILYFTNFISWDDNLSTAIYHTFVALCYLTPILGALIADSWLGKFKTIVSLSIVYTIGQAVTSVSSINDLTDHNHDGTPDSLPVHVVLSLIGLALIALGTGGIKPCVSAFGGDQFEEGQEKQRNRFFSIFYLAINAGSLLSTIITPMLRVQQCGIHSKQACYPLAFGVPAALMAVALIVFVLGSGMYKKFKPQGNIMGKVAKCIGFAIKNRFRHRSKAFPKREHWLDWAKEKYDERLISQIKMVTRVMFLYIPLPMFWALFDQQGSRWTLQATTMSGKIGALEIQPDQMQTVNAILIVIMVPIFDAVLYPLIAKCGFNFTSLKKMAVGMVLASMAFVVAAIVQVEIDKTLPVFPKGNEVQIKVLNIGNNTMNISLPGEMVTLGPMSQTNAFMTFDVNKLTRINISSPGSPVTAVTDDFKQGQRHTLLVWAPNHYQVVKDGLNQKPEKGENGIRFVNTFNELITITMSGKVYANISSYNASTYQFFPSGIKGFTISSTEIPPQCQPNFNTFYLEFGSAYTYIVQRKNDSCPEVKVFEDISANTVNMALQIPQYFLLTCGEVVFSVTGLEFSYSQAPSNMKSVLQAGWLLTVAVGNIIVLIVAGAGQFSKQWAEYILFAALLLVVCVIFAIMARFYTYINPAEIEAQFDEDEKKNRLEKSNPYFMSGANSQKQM
Description: Inhibition of [14C] glycylsarcosine uptake into Caco-2 cells. The method, then:
AT-264's ability to inhibit PepT was examined using a human colon cancer cell line (Caco-2 cells). The results were that the IC50 for uptake of radioactive substrate [^14C] glycylsarcosine into cells was 100 μM (FIG. 1). In Caco-2 cells, only PepT1 was expressed, and PepT1 function was considered to be inhibited by AT-264. The purity of AT-264 used in the present experiment was approximately 50% to 60%, and the actual IC50 was thought to be about 50 μM or so.

The test system of data set [1] is human pancreatic cancer cell line AsPC-1. Description: Cell growth inhibition of AsPC-1, MTS assay. The method, then:
AT-264 was dissolved in RPMI1640—10 mM Hepes (hereinafter, abbreviated to ‘the medium’) containing 0.5% ethanol and 0.5% DMSO to prepare 2.5 mM AT-264 solution. Then, this solution was diluted with the medium to prepare 0.625 mM and 0.0625 mM AT-264 solutions.
A 5×10^4 cells/mL solution of human pancreatic cancer cell line AsPC-1 was prepared using a medium containing 50% FBS. This suspension was plated onto a 96-well plate pre-coated with Collagen type I at 40 μL/well (2×10^3 cells), and 160 μL of the AT-264 solution was added. This was cultured for six days in a CO2 incubator (on the second day of culturing, 100 units/mL penicillin and 0.1 mg/mL streptomycin were added). On the sixth day of culturing, the number of viable cells was quantified by MTS assay.

Another data set has as its target T2, human PepT2 (Homo sapiens, UniProt Q16348).
T2 construct: expressed in transfected cells; host or cells: BaF3 (murine bone marrow-derived cell line)
T2 sequence (Q16348 1-729): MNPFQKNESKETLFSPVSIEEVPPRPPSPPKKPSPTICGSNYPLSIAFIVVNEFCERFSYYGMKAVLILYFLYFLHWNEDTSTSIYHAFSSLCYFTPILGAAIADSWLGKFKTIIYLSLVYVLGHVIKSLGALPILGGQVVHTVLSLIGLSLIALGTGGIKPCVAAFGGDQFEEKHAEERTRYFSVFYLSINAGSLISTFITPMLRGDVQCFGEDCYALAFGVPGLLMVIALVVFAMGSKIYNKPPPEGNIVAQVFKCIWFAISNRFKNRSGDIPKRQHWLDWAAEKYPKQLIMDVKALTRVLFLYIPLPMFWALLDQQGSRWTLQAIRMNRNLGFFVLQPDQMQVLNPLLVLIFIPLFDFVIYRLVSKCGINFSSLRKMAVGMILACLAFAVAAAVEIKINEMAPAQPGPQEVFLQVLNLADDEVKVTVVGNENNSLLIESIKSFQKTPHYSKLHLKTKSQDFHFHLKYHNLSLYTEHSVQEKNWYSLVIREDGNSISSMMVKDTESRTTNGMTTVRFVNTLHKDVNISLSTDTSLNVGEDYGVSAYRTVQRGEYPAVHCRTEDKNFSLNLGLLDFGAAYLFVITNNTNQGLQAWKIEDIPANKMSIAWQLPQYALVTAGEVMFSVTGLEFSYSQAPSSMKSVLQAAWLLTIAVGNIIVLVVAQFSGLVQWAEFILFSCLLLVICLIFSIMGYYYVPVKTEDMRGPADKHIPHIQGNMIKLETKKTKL
Description: Inhibition of [3H] glycylsarcosine uptake into BaF3/PepT2 cells. The source says: The ability of AT-264 to inhibit PepT2 was examined using a murine bone marrow-derived cell line BaF3 in which human PepT2 is forced to be expressed (hereinafter, abbreviated to BaF3/PepT2).

In data set [2] the test system is human pancreatic cancer cell line BxPC-3. Briefly: Cell growth inhibition of BxPC-3, MTS assay. As for the experimental part: AT-264 was dissolved in RPMI1640—10 mM Hepes with 100 units/mL penicillin and 0.1 mg/mL streptomycin (hereinafter, abbreviated to ‘the medium’) containing 0.5% ethanol and 0.5% DMSO to prepare 2.5 mM AT-264 solution. Furthermore, this solution was diluted with the medium to prepare 0.625 mM and 0.0625 mM AT-264 solutions.
5×10^4 cells/mL solution of BxPC-3 was prepared using the medium containing 50% FBS. This suspension was plated onto a 96-well plate pre-coated with Collagen type I at 40 μL/well (2×10^3 cells), and 160 μL of AT-264 solution was added. This was cultured for six days in a CO2 incubator, and on the sixth day of culturing, the number of viable cells was quantified by MTS assay.

For the molecule `N=C(N)c1cccc(CC(NS(=O)(=O)NCc2cccc3ccccc23)C(=O)N2CCCCC2C(=O)O)c1` (stereo not drawn) [AT-264], the IC50 on PepT1 (AT-264 purity approximately 50% to 60%, read-out: IC50 for uptake of radioactive substrate [14C] glycylsarcosine into cells) is 100 µM; on PepT1 (estimated from purity of approximately 50% to 60%, read-out: actual IC50 (corrected for purity of AT-264)) it was roughly 50 µM. Besides, the Cell growth inhibition result in data set [1] (AsPC-1, 0.5 mM AT-264, six days culture) is “slight”. Also, the inhibition at 2000 µM is roughly 30% in data set [1] (Homo sapiens, ASPC1, 144 h, AsPC-1, 2 mM AT-264, six days culture) and roughly 75% in data set [2] (Homo sapiens, 144 h, BxPC-3, 2 mM AT-264, six days culture). In data set [1] (in the presence of AT-264), the “Morphological changes to AsPC-1 under the microscope” value is reported as “not observed”. The “uptake of radioactive substrate [3H] glycylsarcosine into cells” value at human PepT2 was “inhibited in a concentration-dependent manner”. Also, the inhibition at 500 µM in data set [2] (Homo sapiens, 144 h, BxPC-3, 0.5 mM AT-264, six days culture) is roughly 20%. Further, in data set [2] (in the presence of AT-264), the “Morphological changes to BxPC-3 under the microscope” value is listed as “not observed”.
